Patent US8841284B2, “Compound having neurite-outgrowing activity” (Lead Chemical Co., Ltd, priority 2009, dated 2014)

Key:
[1] = system: rat spinal cord dorsal root ganglion neuron; test: Neurite (axon)-outgrowing activity, rat spinal cord dorsal root ganglion neuron, laminin-coated culture vessel; type: cell-based; details: fifth day of culture; for Neurite (axon) Density / Neurite (axon) Length / Neurite (axon) Thickness: relative amount, basal medium = 1
Procedure: Rat spinal cord dorsal root ganglion (Takara Bio Inc.)
Laminin-coated: a well was coated with a culture supernatant containing laminin 5B to be used.
A spinal cord neuron in a frozen state was thawed according to the attached protocol and the neuron was cultured in an NSF-1-added PNBM medium for 2 hours and then in a PNBM medium containing the sample (the compound produced in Example 1).
The dissemination was performed with a spinal cord neuron concentration of 2.5×10^4 cells/0.1 mL/well (96-well-plate).
(§1) The sample (the compound produced in Example 1) was dissolved in DMSO to prepare a 10 mM solution. The 10 mM solution was diluted with DMSO to prepare a 1 mM solution. Further dilution of the solution was performed with a PNBM medium.
(§2) Finally, sample-added media of 0.2 μM concentration and 1 μM concentration were prepared. With respect to the mNGF medium, a 5 ng/mL mNGF-added medium and a 25 ng/mL mNGF-added medium were prepared.
Culture in Laminin-Coated Culture Vessel
A spinal cord neuron can easily outgrow a neurite (axon) and outgrows a neurite even in an additive-free medium.
(§3) On the third day of the culture, the culture medium was exchanged. Photographs of a neuron on the fifth day of the culture are shown in the drawings (a photograph of a neuron on the fifth day of the culture in the basal medium (additive-free) is shown in FIG. 10; a photograph of a neuron on the fifth day of the culture in the neurotrophic factor (NSF-1)-added medium is shown in FIG. 11; and a photograph of a neuron on the fifth day of the culture in the sample-added medium (1 μM concentration) is shown in FIG. 12). Here, the number in Table 2 indicates a relative amount when the value in the basal medium (additive-free) is assumed to be 1.

[2] = system: rat fetus (viviparity 17 days) cerebral cortex neuron; test: Neurite-outgrowing activity, rat fetus cerebral cortex neuron, poly-L-lysine-coated culture vessel; type: cell-based; details: for Neurite Density / Neurite Length / Neurite Thickness: relative amount, basal medium = 1
Procedure: Rat fetus (viviparity 17 days) cerebral cortex neuron (Sumitomo Bakelite Co., Ltd.)
From a frozen cerebral tissue, using an attached protocol and attached reagents, a cerebral cortex neuron was prepared, was cultured in an NSF-1 (neurotrophic factor; name of substance or the like is not disclosed)-added PNBM medium for 2 hours, and then in a PNBM medium containing the sample (the compound produced in Example 1).
The dissemination was performed with a neuron concentration of 2×10^5 cells/0.5 mL/well (24-well-plate).
as §1, §2
Culture in Poly-L-Lysine-Coated Culture Vessel
as §3, with “4;” for “10;”, “5;” for “11;”, “6).” for “12).”, “1” for “2”

[3] = system: rat spinal cord dorsal root ganglion neuron; test: Neurite (axon)-outgrowing activity, rat spinal cord dorsal root ganglion neuron, laminin-coated culture vessel; type: cell-based; details: 1 μM; second day of culture; FIG. 9

C[C@@H]([C@H]1CC[C@H]2[C@@H]3CCc4cc(O)ccc4[C@H]3CC[C@]12C)[C@H]1CC=C(CO)C(=O)O1 [Example 1, 6-[1-(3-hydroxy-13-methyl-7,8,9,11,12,13,14,15,16,17-decahydro-6H-cyclopenta[a]phenanthren-17-yl)-ethyl]-3-hydroxymethyl-5,6-dihydropyran-2-one]
melting point: 248 to 250 °C | Neurite (axon) Density ([1]; 0.2 μM): 2 | Neurite (axon) Length ([1]; 0.2 μM): 2 | Neurite (axon) Thickness ([1]; 0.2 μM): 1 | axon length and thickness (in words) ([1]; 1 μM): the axon outgrew longer but did not become thicker | Neurite (axon) Density ([1]; 1 μM): 2 | Neurite (axon) Length ([1]; 1 μM): 2.5 | Neurite (axon) Thickness ([1]; 1 μM): 1 | Neurite Density ([2]; 0.2 μM, fifth day of culture): 1 | Neurite Length ([2]; 0.2 μM, fifth day of culture): 1 | Neurite Thickness ([2]; 0.2 μM, fifth day of culture): 1 | neurite-outgrowing activity (in words) ([2]; 1 μM, fifth day of culture): has a neurite-outgrowing activity | Neurite Density ([2]; 1 μM, fifth day of culture): 1.5 | Neurite Length ([2]; 1 μM, fifth day of culture): 2 | Neurite Thickness ([2]; 1 μM, fifth day of culture): 2 | number of neurites (in words) ([2]; 1 μM, second day of culture, FIG. 3): the number of neurites increased more than in the basal medium (additive-free), but less than in the neurotrophic factor (NSF-1)-added medium | axon outgrowth (in words) [3]: the axon outgrew more than in the basal medium (additive-free), but less than in the neurotrophic factor (NSF-1)-added medium

B1: NGF: mNGF2. 5S (alomone labs, PRODUCT#N-100), used as mNGF-added medium (protein, UniProt P01139 122-241, looked up)
Beta-nerve growth factor: SSTHPVFHMGEFSVCDSVSVWVGDKTTATDIKGKEVTVLAEVNINNSVFRQYFFETKCRASNPVESGCRGIDSKHWNSYCTTTHTFVKALTTDEKQAAWRFIRIDTACVCVLSRKATRRG
modifications: Beta-nerve growth factor
notes: mNGF2; 5S (alomone labs, PRODUCT#N-100), used as mNGF-added medium
Neurite (axon) Density ([1]; 5 ng/mL): 2 | Neurite (axon) Length ([1]; 5 ng/mL): 2 | Neurite (axon) Thickness ([1]; 5 ng/mL): 1 | Neurite (axon) Density ([1]; 25 ng/mL): 2 | Neurite (axon) Length ([1]; 25 ng/mL): 3 | Neurite (axon) Thickness ([1]; 25 ng/mL): 2 | Neurite Density ([2]; 5 ng/mL, fifth day of culture): 2 | Neurite Length ([2]; 5 ng/mL, fifth day of culture): 2 | Neurite Thickness ([2]; 5 ng/mL, fifth day of culture): 2 | Neurite Density ([2]; 25 ng/mL, fifth day of culture): 2.5 | Neurite Length ([2]; 25 ng/mL, fifth day of culture): 2 | Neurite Thickness ([2]; 25 ng/mL, fifth day of culture): 2
